Reference: patent US4814329A, “Antihyperlipoproteinemic 5-substituted sulfur-containing benzimidazole derivatives” (Richter Gedeon Vegyeszeti Gyar R.T., priority 1985, dated 1989)
Structures can show the parent of a compound that is named as a salt. Where two headings read alike, the source gives them in different places.

Tests used:
[1] = test system: rats fed with cholesterol; assay: in vivo antihyperlipoproteinemic test, rats fed cholesterol fodder for 7 days (Table 1); parameters: species or system Whistar hannover male rats; settings: rat; for change in vivo at 30 mg/kg / change in vivo at 100 mg/kg: po; for change in vivo at 30 mg/kg: 30.0 mg/kg p.o.; for change in vivo at 100 mg/kg: 100.0 mg/kg p.o.
Description: (§1) Whistar hannover male rats weighing 140-160 g were fed for 7 days with a rat fodder supplemented with 1.5% of cholesterol, 0.5% of sodium cholate and 5% of solid fat. (Schurr, P. E.; Schultz, J. R., Day, D. E.; Atherosclerosis Drug Discovery Ed.: C. E. Day, Plenum, New York 215 (1976) and Acta Pharm. Hung., 49, 182. (1979) During this time the total cholesterol level of the serum increased with 200-250% compared to the normal level, while the amount of the HDL chloesterol diminished by 45-50%. Groups consisting of six animals were formed. The compounds of the invention were administered orally starting on the fourth day of the addition of the cholesterol fodder and it was continued by the end of the experiments, by the seventh day, in one or two doses. Then after a 18 hour starving the animals were bled to death under etheric narcosis on the 8th day. The blood samples were centrifuged and the serum total cholesterol and the HDL cholesterol were determined by Backmann enzymatic test, while the triglyceride concentration of the serum was determined by Van Handel's method (J. Lab.: Clin. Med. 41, 486 (1953). The amount of the LDL+VLDL was measured by manganese precipitation turbidimetrically (Schurr, P. E., Schulz, J. R., Day, C. E.: Atherosclerosis Drug Discovery Ed.: C. E. Day, Plenum Press, New York 215 (1976). The antiaggreagtion activity was measured in vitro on human plasm being rich in thrombocytes by a Chrono-log aggregometer. The aggregation was induced by ADP, adrenaline, collagen and arachidonic acid. […]. The lipidperoxidation was induced by N-ethyl-alenicimide (Arzneimittel-Forschung 29, 981 (1979).

[2] = test system: rats with the cholesterol diet; assay: in vivo test in rats with the cholesterol diet, 10 day treatments (Table 2); settings: rat, 10 day treatment, 100.0 mg/kg p.o.
Description: as §1, with “Whistar hannover male rats weighing 140-160 g were fed for 7 days with a rat fodder supplemented with 1.5% of cholesterol, 0.5% of sodium cholate and 5% of solid fat.” left out, “The compounds of the invention were administered orally starting on the fourth day of the addition of the cholesterol fodder and it was continued by the end of the experiments, by the seventh day, in one or two doses.” left out
The affect of compound no. 0202479 to the rats with the
cholesterol diet in 10 day treatments

[3] = test system: platelet aggregation; settings: cited from earlier work
[4] = read-out: HDL cholesterol % change
[5] = read-out: serum cholesterol change
[6] = serum, read-out: triglyceride change

SMILES | change in vivo at 30 mg/kg [1, 4] | change in vivo at 30 mg/kg ([1]; read-out: LDL + VLDL % change) | change in vivo at 30 mg/kg [1, 5] | change in vivo at 100 mg/kg [1, 4] | change in vivo at 100 mg/kg ([1]; read-out: LDL + VLDL % change) | change in vivo at 100 mg/kg [1, 5] | change in vivo at 30 mg/kg [1, 6] | change in vivo at 100 mg/kg [1, 6] | increase of HDL(-cholesterol) ([1]; 100 mg/kg) | decrease of the total serum cholesterol level ([1]; 100 mg/kg) | other results
CCOC(=O)CC(=O)CSc1nc2ccc(Cc3ccccc3)cc2[nH]1 [compound 0203232, 4-[(5-Benzyl-2-benzimidazolyl)thio]acetoacetic acid ethylester hydrochloride] | 6.8% | -27.6% | -32.1% | 6.8% | -45.9% | -48.6% | 29.3% | -18.3% | – | – | –
CCOC(=O)C(C)(C)Oc1ccc(Cl)cc1 [Clofibrate, 2-(4-chlorophenoxy)isobutyric ethyl ester, reference compound] | – | – | – | -20% | -11.2% | -24.7% | – | -20% | – | – | Serum cholesterol percentile change [2]: -23.0 percentile change; HDL cholesterol percentile change ([2]; ** P 0.01): -7.4 percentile change; LDL + VLDL percentile change ([2]; ** P 0.01): -37.9 percentile change; triglyceride percentile change ([2]; ** P 0.01): -24.5 percentile change; IC50 ([3]; ADP induced aggregation, read-out: medium inhibitory concentration, ADP): 100 µM; IC50 ([3]; adrenaline induced aggregation, read-out: medium inhibitory concentration, Adrenaline): 700 µM; IC50 ([3]; arachidonic acid induced aggregation, read-out: medium inhibitory concentration, Arachidonic acid): 5000 µM; IC50 ([3]; collagen induced aggregation, read-out: medium inhibitory concentration, Collagene): 1700 µM; inhibition of aggregation induced by arachidonic acid, in words ([3]; compared with compound at 250 μM): ineffective
O=C(O)CC(Sc1nc2ccc(C(=O)c3ccccc3)cc2[nH]1)C(=O)O (stereo not drawn) [compound 0200086, S-(5-Benzoyl-2-benzimidazolyl)-2-thio-succinic acid] | -35% | -22.1% | -26% | 19.4% | -24.8% | -35.4% | -24.9% | -27.2% | – | – | –
OCCCSc1nc2ccc(Cc3ccccc3)cc2[nH]1 [compound 0202367, 5-Benzyl-2-(3-hydroxypropylthio)-benzimidazole] | 47.1% | -45.2% | -37.4% | 26% | -50.7% | -42.6% | -19% | -16.1% | – | – | –
CC(=O)CCn1c(=S)n(CCC(C)=O)c2cc(Cc3ccccc3)ccc21 [compound 0200058, 1,3-bis(3-Oxo-butyl)-5-benzyl-2-thioxo-benzimidazole] | 30% | -19.4% | -14% | 44.9% | -9.4% | -10.6% | 1% | 12.8% | 45% | – | total cholesterol of the serum, in words ([1]; 100 mg/kg): smaller decrease of the level of the total cholesterol of the serum
CC(=O)CSc1nc2ccc(Cc3ccccc3)cc2[nH]1 [compound 0202002, 1-((5-benzyl-2-benzimidazolyl)thio)-2-propanone] | -16.9% | -0.38% | -22% | -16.9% | -55.8% | -68% | 27.8% | -29.4% | – | – | –
CC(=O)CCn1c(=S)[nH]c2cc(Cc3ccccc3)ccc21 [compound 0200427, 1-(5-Benzyl-2-thioxo-1-benzimidazolyl)-3-butanone] | -17.7% | -58.2% | -45.5% | -12.1% | -54.4% | -51.7% | -63.5% | -67.2% | – | 51.7% | HDL level, in words ([1]; 100 mg/kg): decreased the HDL level, though in smaller extent; decrease of the LDL+VLDL level ([1]; 100 mg/kg): 54.4%; decrease of the serum triglyceride ([1]; 100 mg/kg): 67.2%; overall lipid/lipoprotein activity, in words ([1]; 100 mg/kg): Especially great serum lipid decreasing activity
C#CCSc1nc2ccc(Cc3ccccc3)cc2[nH]1 [compound 0202647, 5-Benzyl-2-(2-propinylthio)-benzimidazole] | – | – | – | – | – | – | – | – | 49% | 34.5 | decrease of the LDL+VLDL level ([1]; 100 mg/kg): 41.5; overall lipid/lipoprotein activity, in words ([1]; 100 mg/kg): especially excellent activity
OCCSc1nc2ccc(Cc3ccccc3)cc2[nH]1 [compound 0202377, 5-Benzyl-2-(2-hydroxyethylthio)-benzimidazole] | -13.5% | 1% | -36.5% | 61.2% | -14.5% | -52.4% | 58% | 116% | 61.2% | 52.4 | LDL+VLDL level, in words ([1]; 100 mg/kg): decreased is smaller extent
O=C(O)CC(Sc1nc2ccc(Cc3ccccc3)cc2[nH]1)C(=O)O (stereo not drawn) [compound 0200131, S-(5-Benzyl-2-benzimidazolyl)-2-thio-succinic acid] | 10% | -17.5% | -17.4% | 57% | -5.9% | -16.9% | -18.8% | -25.4% | – | – | –
Br.C=CCSc1nc2ccc(Cc3ccccc3)cc2[nH]1 [compound 0202154, 5-Benzyl-2-(2-propenylthio)-benzimidazole hydrobromide] | 27% | -38.1% | -34.5% | 71.3% | -57.5% | -49.3% | -30% | -25.3% | 71.3% | 49.3% | decrease of the LDL+VLDL level ([1]; 100 mg/kg): 57.5%; decrease of the serum triglyceride ([1]; 100 mg/kg): 25.3%; overall lipid/lipoprotein activity, in words ([1]; 100 mg/kg): very effective
